Reference: patent US9676701B2, “Cyclopropylamine derivatives useful as LSD1 inhibitors” (Oryzon Genomics, S.A., priority 2010, dated 2017)
Where a name gives a salt, the structure may show the parent alone.

Experiments:
[1] = biological target: Human recombinant LSD1 protein (Homo sapiens (Human), UniProt O60341); assay: biochemical
MAO-B = MAO-B (Homo sapiens (Human), UniProt P27338); conditions: read-out: MAO-B (Ki)
MAO-A = MAO-A (Homo sapiens (Human), UniProt P21397); conditions: read-out: MAO-A (Ki)
MAO-A, sequence (P21397 whole entry): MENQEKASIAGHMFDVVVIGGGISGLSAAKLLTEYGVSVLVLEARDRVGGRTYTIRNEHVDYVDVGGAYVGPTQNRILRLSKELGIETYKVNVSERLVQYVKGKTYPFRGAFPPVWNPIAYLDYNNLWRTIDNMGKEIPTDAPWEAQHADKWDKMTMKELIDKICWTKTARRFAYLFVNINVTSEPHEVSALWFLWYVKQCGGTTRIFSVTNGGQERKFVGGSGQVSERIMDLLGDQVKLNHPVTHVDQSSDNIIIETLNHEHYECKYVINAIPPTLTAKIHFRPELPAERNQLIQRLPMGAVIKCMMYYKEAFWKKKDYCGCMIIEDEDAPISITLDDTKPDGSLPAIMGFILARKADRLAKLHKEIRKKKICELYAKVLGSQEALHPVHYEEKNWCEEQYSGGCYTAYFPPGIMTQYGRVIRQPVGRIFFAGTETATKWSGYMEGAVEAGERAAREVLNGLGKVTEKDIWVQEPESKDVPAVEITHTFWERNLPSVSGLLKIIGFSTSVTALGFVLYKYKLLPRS

MAO-B, sequence (P27338 whole entry): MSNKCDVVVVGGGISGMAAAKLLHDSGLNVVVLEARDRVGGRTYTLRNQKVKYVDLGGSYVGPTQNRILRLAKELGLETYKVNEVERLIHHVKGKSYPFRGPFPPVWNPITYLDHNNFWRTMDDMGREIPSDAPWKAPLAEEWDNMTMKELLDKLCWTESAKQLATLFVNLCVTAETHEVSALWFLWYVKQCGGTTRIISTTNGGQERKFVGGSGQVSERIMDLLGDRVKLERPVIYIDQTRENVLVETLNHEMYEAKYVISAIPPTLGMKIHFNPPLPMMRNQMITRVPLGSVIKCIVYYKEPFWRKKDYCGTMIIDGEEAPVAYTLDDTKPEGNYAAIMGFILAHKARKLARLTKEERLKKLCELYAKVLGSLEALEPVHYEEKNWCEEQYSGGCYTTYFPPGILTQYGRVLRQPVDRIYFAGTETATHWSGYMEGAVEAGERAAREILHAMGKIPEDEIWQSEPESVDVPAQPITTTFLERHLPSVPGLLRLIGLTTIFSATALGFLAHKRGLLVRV

Row | SMILES | Ki [1] [µM] | Ki (MAO-B) [µM] | Ki (MAO-A) [µM]
1 | N[C@H]1C[C@@H]1c1ccc(-c2cccc(C(F)(F)F)c2)cc1 (relative stereo) [Example 1, (trans)-2-(3′-(trifluoromethyl)biphenyl-4-yl)cyclopropanamine hydrochloride] | 0.1 to 1 | 1 to 40 | 1 to 40
2 | N[C@H]1C[C@@H]1c1ccc(-c2ccc(O)cc2)cc1 (relative stereo) [Example 3, 4′-((trans)-2-aminocyclopropyl)biphenyl-4-ol hydrochloride] | 0.1 to 1 | 1 to 40 | 1 to 40
3 | N[C@H]1C[C@@H]1c1ccc(-c2cccc(O)c2)cc1 (relative stereo) [Example 4, 4′-((trans)-2-aminocyclopropyl)biphenyl-3-ol hydrochloride] | 0.001 to 0.1 | 1 to 40 | 1 to 40
4 | N#Cc1ccc(-c2ccc([C@H]3C[C@@H]3N)cn2)cc1 (relative stereo) [Example 12, 4-(5-((trans)-2-aminocyclopropyl)pyridin-2-yl)benzonitrile dihydrochloride] | 0.1 to 1 | 1 to 40 | 1 to 40
5 | N#Cc1cccc(-c2ccc([C@H]3C[C@@H]3N)cn2)c1 (relative stereo) [Example 13, 3-(5-((trans)-2-aminocyclopropyl)pyridin-2-yl)benzonitrile hydrochloride] | 0.001 to 0.1 | 1 to 40 | 1 to 40
6 | Cc1cccc(-c2ccc([C@H]3C[C@@H]3N)cn2)c1 (relative stereo) [Example 15, (Trans)-2-(6-m-tolylpyridin-3-yl)cyclopropanamine hydrochloride] | 0.1 to 1 | 1 to 40 | 1 to 40
7 | N[C@H]1C[C@@H]1c1ccc(-c2ccc(O)cc2)nc1 (relative stereo) [Example 16, 4-(5-((trans)-2-aminocyclopropyl)pyridin-2-yl)phenol hydrochloride] | 0.1 to 1 | 1 to 40 | 1 to 40
8 | NC(=O)c1cccc(-c2ccc([C@H]3C[C@@H]3N)cn2)c1 (relative stereo) [Example 19, 3-(5-((trans)-2-aminocyclopropyl)pyridin-2-yl)benzamide hydrochloride] | 0.1 to 1 | 1 to 40 | 1 to 40
9 | N[C@H]1C[C@@H]1c1ccc(-c2ccc(F)c(O)c2)nc1 (relative stereo) [Example 23, 5-(5-((trans)-2-aminocyclopropyl)pyridin-2-yl)-2-fluorophenol hydrochloride] | 0.001 to 0.1 | 1 to 40 | 1 to 40
10 | N[C@H]1C[C@@H]1c1ccc(-c2cc(O)cc(F)c2)nc1 (relative stereo) [Example 24, 3-(5-((trans)-2-aminocyclopropyl)pyridin-2-yl)-5-fluorophenol hydrochloride] | 0.001 to 0.1 | 1 to 40 | 1 to 40
11 | N[C@H]1C[C@@H]1c1ccc(-c2cc(O)ccc2F)nc1 (relative stereo) [Example 25, 3-(5-((trans)-2-aminocyclopropyl)pyridin-2-yl)-4-fluorophenol hydrochloride] | 0.001 to 0.1 | 1 to 40 | 1 to 40
12 | N[C@H]1C[C@@H]1c1ccc(-c2cccc(O)c2F)nc1 (relative stereo) [Example 26, 3-(5-((trans)-2-aminocyclopropyl)pyridin-2-yl)-2-fluorophenol hydrochloride] | 0.1 to 1 | 1 to 40 | 1 to 40
13 | N[C@H]1C[C@@H]1c1ccc(-c2cc(O)cc(Cl)c2)nc1 (relative stereo) [Example 29, 3-(5-((trans)-2-aminocyclopropyl)pyridin-2-yl)-5-chlorophenol hydrochloride] | 0.001 to 0.1 | 1 to 40 | 1 to 40
14 | N[C@H]1C[C@@H]1c1ccc(-c2cccc(C(F)(F)F)c2F)nc1 (relative stereo) [Example 30, (trans)-2-(6-(2-fluoro-3-(trifluoromethyl)phenyl)pyridin-3-yl)cyclopropanamine hydrochloride] | 0.1 to 1 | 1 to 40 | 1 to 40

Now from value to compound:

Row | Ki [1] [µM] | Ki (MAO-B) [µM] | Ki (MAO-A) [µM] | SMILES
15 | 0.001 to 0.1 | 1 to 40 | 1 to 40 | N[C@H]1C[C@@H]1c1ccc(-c2ccc(Cl)s2)nc1 (relative stereo) [Example 31, (trans)-2-(6-(5-chlorothiophen-2-yl)pyridin-3-yl)cyclopropanamine hydrochloride]
16 | 0.1 to 1 | 1 to 40 | 1 to 40 | N[C@H]1C[C@@H]1c1ccc(-c2ccc3sccc3c2)nc1 (relative stereo) [Example 34, (trans)-2-(6-(benzo[b]thiophen-5-yl)pyridin-3-yl)cyclopropanamine hydrochloride]
17 | 0.1 to 1 | 1 to 40 | 1 to 40 | COc1cc(-c2ccc([C@H]3C[C@@H]3N)cn2)ccc1F (relative stereo) [Example 38, (trans)-2-(6-(4-fluoro-3-methoxyphenyl)pyridin-3-yl)cyclopropanamine hydrochloride]
18 | 0.1 to 1 | 1 to 40 | 1 to 40 | COc1cc(F)cc(-c2ccc([C@H]3C[C@@H]3N)cn2)c1 (relative stereo) [Example 39, (trans)-2-(6-(3-fluoro-5-methoxyphenyl)pyridin-3-yl)cyclopropanamine hydrochloride]
19 | 0.1 to 1 | 1 to 40 | 1 to 40 | COc1ccc(F)c(-c2ccc([C@H]3C[C@@H]3N)cn2)c1 (relative stereo) [Example 40, (trans)-2-(6-(2-fluoro-5-methoxyphenyl)pyridin-3-yl)cyclopropanamine hydrochloride]
20 | 0.1 to 1 | 1 to 40 | 1 to 40 | COc1cccc(-c2ccc([C@H]3C[C@@H]3N)cn2)c1F (relative stereo) [Example 41, (trans)-2-(6-(2-fluoro-3-methoxyphenyl)pyridin-3-yl)cyclopropanamine hydrochloride]
21 | 0.1 to 1 | 1 to 40 | 1 to 40 | COc1ccc(Cl)c(-c2ccc([C@H]3C[C@@H]3N)cn2)c1 (relative stereo) [Example 43, (trans)-2-(6-(2-chloro-5-methoxyphenyl)pyridin-3-yl)cyclopropanamine hydrochloride]
22 | 0.001 to 0.1 | 1 to 40 | 1 to 40 | Cc1ccc(-c2ccc([C@H]3C[C@@H]3N)cn2)cc1O (relative stereo) [Example 46, 5-(5-((trans)-2-aminocyclopropyl)pyridin-2-yl)-2-methylphenol hydrochloride]
23 | 0.1 to 1 | 1 to 40 | 1 to 40 | N[C@H]1C[C@@H]1c1ccc(-c2cc(O)ccc2Cl)nc1 (relative stereo) [Example 47, 3-(5-((trans)-2-aminocyclopropyl)pyridin-2-yl)-4-chlorophenol hydrochloride]
24 | 0.1 to 1 | 1 to 40 | 1 to 40 | N[C@H]1C[C@@H]1c1ccc(-c2cc(C(F)(F)F)ccc2F)nc1 (relative stereo) [Example 49, (trans)-2-(6-(2-fluoro-5-(trifluoromethyl)phenyl)pyridin-3-yl)cyclopropanamine hydrochloride]
25 | 0.1 to 1 | 1 to 40 | 1 to 40 | N[C@H]1C[C@@H]1c1ccc(-c2cc(C(F)(F)F)ccc2Cl)nc1 (relative stereo) [Example 50, (trans)-2-(6-(2-chloro-5-(trifluoromethyl)phenyl)pyridin-3-yl)cyclopropanamine hydrochloride]
26 | 0.1 to 1 | 1 to 40 | 1 to 40 | CC(=O)Nc1cccc(-c2ccc([C@H]3C[C@@H]3N)cn2)c1 (relative stereo) [Example 52, N-(3-(5-((trans)-2-aminocyclopropyl)pyridin-2-yl)phenyl)acetamide hydrochloride]
27 | 0.1 to 1 | 1 to 40 | 1 to 40 | N[C@H]1C[C@@H]1c1ccc(-c2cc3ccccc3s2)nc1 (relative stereo) [Example 54, (trans)-2-(6-(benzo[b]thiophen-2-yl)pyridin-3-yl)cyclopropanamine hydrochloride]
28 | 0.1 to 1 | 1 to 40 | 1 to 40 | N[C@H]1C[C@@H]1c1ccc(-c2csc3ccccc23)nc1 (relative stereo) [Example 55, (trans)-2-(6-(benzo[b]thiophen-3-yl)pyridin-3-yl)cyclopropanamine hydrochloride]
29 | 0.001 to 0.1 | 1 to 40 |  | N[C@H]1C[C@@H]1c1ccc(-c2cc(O)c(F)c(F)c2)nc1 (relative stereo) [Example 59, 5-(5-((trans)-2-aminocyclopropyl)pyridin-2-yl)-2,3-difluorophenol hydrochloride]
30 | 0.001 to 0.1 |  |  | N[C@H]1C[C@@H]1c1ccc(-c2ccc(F)c(O)c2)cc1 (relative stereo) [Example 66, 4′-((trans)-2-aminocyclopropyl)-4-fluorobiphenyl-3-ol hydrochloride]
31 | 0.001 to 0.1 |  |  | N[C@H]1C[C@@H]1c1ccc(-c2cc(O)cc(Cl)c2)cc1 (relative stereo) [Example 67, 4′-((trans)-2-aminocyclopropyl)-5-chlorobiphenyl-3-ol hydrochloride]
32 | 0.001 to 0.1 |  |  | N[C@H]1C[C@@H]1c1ccc(-c2cccc(NS(=O)(=O)c3ccccc3)c2)cc1 (relative stereo) [Example 68, N-(4′-((trans)-2-aminocyclopropyl)biphenyl-3-yl)benzenesulfonamide hydrochloride]
33 | 0.001 to 0.1 |  |  | CC(C)S(=O)(=O)Nc1cccc(-c2ccc([C@H]3C[C@@H]3N)cc2)c1 (relative stereo) [Example 69, N-(4′-((trans)-2-aminocyclopropyl)biphenyl-3-yl)propane-2-sulfonamide hydrochloride]
34 | 0.1 to 1 |  |  | N[C@H]1C[C@@H]1c1ccc(-c2cccc(NS(=O)(=O)C(F)(F)F)c2)cc1 (relative stereo) [Example 103, N-(4′-((trans)-2-aminocyclopropyl)-[1,1′-biphenyl]-3-yl)-1,1,1-trifluoromethanesulfonamide hydrochloride]
